The subject of experiment [1] is Human 293 cells. The experiment is described as follows: Luciferase activity after transient co-transfection with pCMV-Luc. It counts as cell-based. The conditions noted are these: 48 hours after co-transfection with pBS-CMV-tTA-Barnase-Barstar and pCMV-Luc; tetracycline pretreatment, 2 μg/ml.
Method: Cell culture and transient transfection: Human 293 cells from embryonal kidney were maintained at 37° C., 5% CO2 in α-MEM supplemented with 10% fetal bovine serum. Transfections by calcium phosphate co-precipitation were performed according to standard protocols. Transfections were carried out in 35 mm dishes, using 1 μg of plasmid together with 0.5 μg of pCMV-Luc or pCMV-GFP. Control trasfections contained 1 μg of empty pTRE plasmid DNA together with 0.5 μg of either pCMV-Luc or pCMV-GFP. Tetracycline was used at a concentration of 2 μg/ml, and added shortly after cells were transfected, unless otherwise indicated. All data were from three replicate plates and the experiments were repeated twice.
Luciferase activity: Twenty-four hours following transfection, media was removed, cells were washed with PBS and luciferase assays were performed as described in Yin et al (1996) with Promega luciferase assay system, using 10 μl lysate and 50 μl luciferase substrate. Activity was measured with a Turner TD-20e luminometer. Protein concentrations in different lysates were determined by Bradford assays (Bio-Rad), and luciferase activity per μg protein determined.
The subject of experiment [2] is sperm comprising an X chromosome. Nature of the experiment: Sex of offspring sired by male mice carrying TP1-HSV tk (transgene (a)) on the X chromosome. The conditions noted are these: after two weeks of gancyclovir administration, crossed with non-transgenic female mice. The format is in vivo, mouse. How it is done: The mice transformed with transgene (a), as described above, express HSV tk on the X chromosome of maturing sperm. Gancyclovir. from about 5 to about 15 mg/kg body weight, is administered to transgenic mice expressing HSV tk via injection. Upon gancyclovir administration, HSV tk forms toxic metabolites that leads to the ablation of sperm comprising an X chromosome. The TP1 regulatory region is activated post-meiotically, so that Y bearing sperm are not effected. Thus, the transformed male mouse comprises exclusively Y bearing sperm and produces male offspring, upon gancyclovir administration. An exemplary gancyclovir administration regime comprises two weeks of administration prior to mating, thereby destroying X chromosome-bearing sperm prior to mating. Male mice carrying transgene HSV tk (transgene (a)) are crossed non-transgenic female mice. Without gancyclovir administration, half of the offspring are male and half are female. The female offspring carry the transgene on the X chromosome. After two weeks of gancyclovir administration, male mice carrying transgene (a) are crossed with non-transgenic female mice. The resulting offspring are all male.

Take `CN(C)[C@@H]1C(O)=C(C(N)=O)C(=O)[C@@]2(O)C(O)=C3C(=O)c4c(O)cccc4[C@@](C)(O)[C@H]3C[C@@H]12` [tetracycline]: the “luciferase activity in cells treated with tetracycline versus those not treated” value in experiment [1] was ~6 fold.

Regarding `Nc1nc(O)c2ncn(COC(CO)CO)c2n1` [gancyclovir], the “sex of the resulting offspring” value in experiment [2] is “all male”.

These data come from patent publication US20040034879A1, “Mammalian sex selection using genetic modification” (priority 2000, published 2004).
